Values after ≈ are worked out from the molar mass of the structure shown. Non-standard residues stand in square brackets, D forms with d. Residues, ends and D or L forms follow the SMILES beside them. ξ: configuration not given here. *: point of attachment. ξF = NC(Cc1ccccc1)C(=O)O; Cbz = O=C(OCc1ccccc1)*; CH2Cl = ClC*

The source of these data is paper PMC5406460 (Frontiers in Microbiology, 2017).

The test system of data set [1] is M. tuberculosis H37Rv. The data set can be described thus: Minimum bactericidal concentration (MBC99) by CFU enumeration. The class given is cell-based. The conditions noted are these: for MBC: Mycobacterium tuberculosis, H37RV, 120 h, concentration killing 99% of bacteria (100-fold kill), 5 days treatment.
Data set [2] concerns M. tuberculosis H37Rv. The data set can be described thus: Turbidity-based growth inhibition (MIC50), M. tuberculosis H37Rv. The class given is cell-based. The settings on record: Mycobacterium tuberculosis, 120 h, 50% growth inhibition, 5 days, OD600.
The target of data set [3] is human proteasome (Homo sapiens, UniProt P28074). The data set is described as follows: cell-based.
Data set [4] addresses ClpP1P2 (Mycobacterium bovis, UniProt P0A527+P63784). The data set is described as follows: cell-based. The class given is cell-based, M. bovis BCG. The settings on record: for IC50: 24 h, read-out: Bacterial Clp IC50.
Data set [5] relates to M. bovis BCG. The data set can be described thus: organism not typed. The class given is cell-based. The settings on record: 120 h, read-out: M. bovis MIC50.
In data set [6] the target is bacterial proteasome (Mycobacterium bovis, UniProt A1KKF3). The data set can be described thus: cell-based. On the set-up: species or system M. bovis BCG.
Data set [7] can be described thus: in vitro. The settings on record: human.

Sequence of bacterial proteasome (A1KKF3 whole entry, looked up): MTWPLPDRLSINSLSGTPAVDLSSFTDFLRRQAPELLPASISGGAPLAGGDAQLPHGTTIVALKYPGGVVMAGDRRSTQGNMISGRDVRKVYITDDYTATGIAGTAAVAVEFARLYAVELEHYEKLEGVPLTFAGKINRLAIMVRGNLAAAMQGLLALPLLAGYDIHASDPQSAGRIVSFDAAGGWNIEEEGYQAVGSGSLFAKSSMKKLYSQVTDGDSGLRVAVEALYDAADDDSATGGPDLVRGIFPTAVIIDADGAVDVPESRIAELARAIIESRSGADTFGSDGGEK

The term MBC denotes the smallest concentration meeting the test's criterion for killing. Low values mean more potent killing, high ones less potent killing. As usually defined, the MIC50 is the lowest concentration that inhibits either 50% of growth or 50% of the strains tested, depending on the study. A word on the IC50: it is the midpoint of a concentration-inhibition curve. In data set [1], `CC(C)C[C@H](NC(=O)CNC(=O)OCc1ccccc1)C(=O)NC(Cc1ccccc1)C(=O)CCl` (stereo partly drawn) [Z-GLF-CMK, Carboxybenzyl-glycine-leucine-phenylalanine-CMK] (Cbz-Gly-Leu-[ξF]-CH2Cl) yielded an MBC of 200 µM (≈ 100 µg/mL). Also, the MIC50 in data set [2] and in data set [5] was 20 µM (≈ 10 µg/mL) in each case. Further, the IC50 in data set [3] was above 500 µM; in data set [4] it was 25 µM; in data set [6], 35 µM.
In the case of `O=C(CNC(=O)OCc1ccccc1)NCC(=O)NC(Cc1ccccc1)C(=O)CCl` (stereo not drawn) [Z-GGF-CMK, Carboxybenzyl-glycine-glycine-phenylalanine-CMK] (Cbz-Gly-Gly-[ξF]-CH2Cl), the MIC50 in data set [2] and in data set [5] was 30 µM (≈ 13.4 µg/mL) in each case. For the same compound, the IC50 is above 500 µM in data set [3], 50 µM in data set [4] and 50 µM in data set [6].
For `CC(C)C[C@H](NC(=O)[C@H](Cc1ccccc1)NC(=O)c1cnccn1)C(=O)CCl` [Pyr-FL-CMK, N-((S)-1-(((S)-1-chloro-5-methyl-2-oxohexan-3-yl)amino)-1-oxo-3-phenylpropan-2-yl)pyrazine-2-carboxamide], the MBC in data set [1] came out at 100 µM (≈ 41.7 µg/mL). The “reduction in bactericidal potency against M. tuberculosis” value in data set [1] (compared to Bortezomib (MBC99)) is “two-fold”. The values for the MIC50 in data set [2] and in data set [5] were 25 µM (≈ 10.4 µg/mL) and 20 µM (≈ 8.34 µg/mL), respectively. The figures for the IC50 in data set [3], in data set [4] and in data set [6] were above 500 µM, 25 µM and 25 µM, respectively. The “loss of potency against ClpP1P2 compared to Bortezomib” value in data set [4] (25 vs. 1.6 μM) is recorded as around 15 fold. The selectivity ratio in data set [7] was at least 20.
In turn, `CC(C)C[C@H](NC(=O)[C@H](Cc1ccccc1)NC(=O)c1cnccn1)B(O)O` [Pyr-FL-BA, Pyrazine-Phenylalanine-Leucine-Boronic acid] yielded an MBC in data set [1] of 50 µM (≈ 19.2 µg/mL). Besides, the MIC50 in data set [2] came to 4 µM (≈ 1.54 µg/mL); in data set [5] it was 0.8 µM (≈ 0.307 µg/mL). Besides, the IC50 came to 1.6 µM in data set [4] and 0.8 µM in data set [6].
